Drawing on the supplement of paper PMC10307832, this text covers relative viability for one cell line.

Assay in all cases: relative viability (nuclei count vs DMSO), 5 days (fraction); higher = more cells survive
Compound in the assay “Doxorubicin + Crizotinib”: COc1cccc2c1C(=O)c1c(O)c3c(c(O)c1C2=O)C[C@@](O)(C(=O)CO)C[C@@H]3O[C@H]1C[C@H](N)[C@H](O)[C@H](C)O1 [Doxorubicin] + C[C@@H](Oc1cc(-c2cnn(C3CCNCC3)c2)cnc1N)c1c(Cl)ccc(F)c1Cl [Crizotinib] (partner 1 µM)
In short, it runs like this:
(§1)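 Five library-drug doses in √10 steps were combined with a fixed anchor-drug dose, or a single drug was given alone, by pin tool to lung cancer cell lines in 1536-well plates the day after seeding. Nuclei were stained and counted after 5 days. Relative viability is the nuclei count in treated wells over that in vehicle wells, taken as the median of duplicate plates.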

Compound in the assay “Doxorubicin + Pictilisib”: COc1cccc2c1C(=O)c1c(O)c3c(c(O)c1C2=O)C[C@@](O)(C(=O)CO)C[C@@H]3O[C@H]1C[C@H](N)[C@H](O)[C@H](C)O1 [Doxorubicin] + CS(=O)(=O)N1CCN(Cc2cc3nc(-c4cccc5[nH]ncc45)nc(N4CCOCC4)c3s2)CC1 [Pictilisib] (partner 1 µM)
In a few lines:
as §1

Compound in the assay “Doxorubicin + Linsitinib”: COc1cccc2c1C(=O)c1c(O)c3c(c(O)c1C2=O)C[C@@](O)(C(=O)CO)C[C@@H]3O[C@H]1C[C@H](N)[C@H](O)[C@H](C)O1 [Doxorubicin] + C[C@]1(O)C[C@@H](c2nc(-c3ccc4ccc(-c5ccccc5)nc4c3)c3c(N)nccn32)C1 [Linsitinib] (partner 1 µM)
In a few lines: as §1

Compound in the assay “BAY61-3606 + Foretinib”: COC1=C(C=C(C=C1)C2=CC3=NC=CN3C(=N2)NC4=C(C=CC=N4)C(=O)N)OC [BAY61-3606] + COc1cc2c(Oc3ccc(NC(=O)C4(C(=O)Nc5ccc(F)cc5)CC4)cc3F)ccnc2cc1OCCCN1CCOCC1 [Foretinib] (partner 0.25 µM)
In short, it runs like this:
as §1

Turning to UMC-11, the relative viability in the assay with Doxorubicin + Crizotinib (first compound 0.001 µM) is 0.539; with Doxorubicin + Crizotinib (first compound 0.003162 µM), 0.66; with Doxorubicin + Crizotinib (first compound 0.01 µM), 0.648; with Doxorubicin + Crizotinib (first compound 0.03162 µM), 0.309; in the assay with Doxorubicin + Crizotinib (first compound 0.1 µM) it was 0.386; with Doxorubicin + Pictilisib (first compound 0.001 µM) it was 0.849. Further, the relative viability with Doxorubicin + Pictilisib (first compound 0.003162 µM) stood at 0.927; with Doxorubicin + Pictilisib (first compound 0.01 µM), 0.769; with Doxorubicin + Pictilisib (first compound 0.03162 µM) it was 0.445; with Doxorubicin + Pictilisib (first compound 0.1 µM), 0.369; with Doxorubicin + Linsitinib (first compound 0.001 µM), 1.1; with Doxorubicin + Linsitinib (first compound 0.003162 µM), 1.13. The relative viability with Doxorubicin + Linsitinib (first compound 0.01 µM) stood at 1.09; in the assay with Doxorubicin + Linsitinib (first compound 0.03162 µM), 0.803; with Doxorubicin + Linsitinib (first compound 0.1 µM), 0.875; with BAY61-3606 + Foretinib (first compound 0.02 µM) it was 1.23; in the assay with BAY61-3606 + Foretinib (first compound 0.06325 µM) it was 1.12; with BAY61-3606 + Foretinib (first compound 0.2 µM) it was 1.05. Also, the values for the relative viability in the assay with BAY61-3606 + Foretinib (first compound 0.6325 µM) and in the assay with BAY61-3606 + Foretinib (first compound 2 µM) were 1.15 and 1.02, respectively.
